Values after ≈ are worked out from the molar mass of the structure shown.
Tests used:
[1] = test system: orthotopic H358 NSCLC model in nude mice; test: Antitumor efficacy, orthotopic H358 NSCLC xenograft; type: in vivo
Protocol: (§1) Antitumor efficacy. In order to evaluate the antitumor efficacy of the airway administered demethylating agent and to compare the result with systemic treatment, orthotopic human NSCLC xenograft models in nude mice were developed by inoculating the tumor cells in the respiratory airway (35,36). In the first experiment, the mice bearing lung tumors were randomly divided into 3 groups with 5 mice in each. Ten days after the H460 tumor inoculation, one group of mice were treated with intratracheal injection of 2.5 mg/kg of 5-azacytidine every other day for 3 injections, another group of mice were treated with IV injections of 6.25 mg/kg every day for 6 injections via tail vein, and the last group of mice remained untreated. […] The median survival is 50, 80 and >109 days for no treatment, IV 5Aza, and IT 5Aza group, respectively (FIG. 5-2). The similar results were obtained from another experiment using an orthotopic H358 NSCLC model. In the second experiment, the treatment schedules and doses were the same as the first experiment. The median survival is 60, 73, and 98 days for no treatment, IV 5Aza, and IT 5Aza group, respectively (FIG. 5-3). In both experiments, the differences between IT 5Aza and IV 5Aza are statistically significant (p<0.01).

[2] = test system: Human NSCLC cell lines H358, H460, and A549; test: Cytotoxicity by MTT assay; type: cell-based; settings: 72 h, 3 days exposure, range over the cell lines, read-out: IC50 (concentration inhibiting 50 percent cell growth)
Protocol: Cytotoxicity of 5-azacytidine. Human NSCLC cell lines H358, H460, and A549 were exposed to different concentrations of 5-azacytidine in a 96-well plate for 3 days. The cytotoxicity was measured by MTT assay.

[3] = test system: DAPK and E-cadherin in human NSCLC cell lines A549 and H460; test: Demethylation function: re-expression of DAPK and E-cadherin by Western blotting; type: cell-based; settings: 24 hours exposure
Description: DAPK and E-cadherin are important tumor suppressor proteins.

lung cancer patients = settings: intravenous or subcutaneous, not aerosol; one of the largest studies; transient; cited from earlier work
[4] = Aerodynamic size of aerosol droplets (7-Stage Cascade Impactor); type: physicochemical; settings: PARI compressor, LC star nebulizer, airflow 5 L/min
Protocol: Aerosol equipment. A PARI personal compressor and a LC star nebulizer were used in this study. The pressure should be 20-28 psi, and the aerosol generated rate should be 0.3±0.03 ml/min. Other clinically used aerosol equipment with similar functions can be used as well.
The aerodynamic diameters of aerosol droplets of 5-azacytidine were determined with extrusion-precipitation method using a 7-Stage Cascade Impactor (In-Tox Products, Albuquerque, N. Mex.) linked to PARI's personal compressor and LC star nebulizer system. 5-azacytidine solution (4 ml) was aerosolized under the airflow rate of 5 L/min. The condensed aerosol samples were collected at 3 different periods, from 1 to 1.5 min, from 3 to 3.5 min, and from 5 to 5.5 min. Aerodynamic size and fraction of aerosol with a particular size range were measured and calculated as per manufacturer's protocol. The data was mean±SD of the aerodynamic size based on weight (bars) and cumulative weight (line) from 3 independent experiments.

in vivo = settings: ICR, mouse, in vivo, iv
Protocol: (§2) Acute toxicity. The dose limiting toxicity of intravenous 5-azacytidine or decitabine is severe myelosuppression. In order to test whether aerosol or intratracheal injection can reduce the myelotoxicity or alter the toxicity profile, a dose of 90 mg/kg, the maximum tolerated dose (MTD) for intravenous injection (IV) of 5-azacytidine, was used to treat ICR mice by intravenous injection to mimic current therapy. The same dose of intratracheal injection (IT) of 5-azacytidine was used to mimic aerosol administration (35). Complete blood count (CBC), creatinine, liver function tests, and pathological evaluation of H/E staining of lungs, kidney and liver were performed to assess for toxicity differences.

ICR mice = test: in vivo
Protocol: as §2

[5] = test system: orthotopic human NSCLC xenograft H460 in nude mice; test: Antitumor efficacy, orthotopic H460 NSCLC xenograft; type: in vivo
Protocol: as §1

[6] = Dose finding: lethal toxicity and MTD; type: in vivo, mice; settings: female, nude, mouse, in vivo, maximum dose causing 0% death, read-out: MTD (total dose)
Protocol: (§3) Dose finding. In order to use optimal therapeutic dose, the lethal toxicity and MTD for intratracheal injection (mimicking aerosol, IT) and intravenous injection (mimicking current most frequently used intravenous infusion and injection, IV) routes were determined in mice before the therapeutic experiment. Briefly, the nude mice (female, 6 weeks age) were inoculated with 4×10^6H460 cells intratracheally. One week later, they were randomly divided into several groups with 5 mice in each. Different groups of mice received different doses of IT 5Aza (range from 2.5 to 50 mg/kg qod×3) or IV 5Aza (range from 6.25 to 50 mg/k daily×6). The percentage of moribund mice in each group versus dose was used to simulate the dose response curves and determined the MTD. The maximum dose caused 0% death was defined as MTD. Under these experimental conditions, the MTD for both IT and IV 5Aza was 37.5 mg/kg or 112.5 mg/m^2 (total dose, FIG. 5-1). In considering the cytotoxicity results and the aerosol efficiency, 20% of IT MTD and 100% of IV MTD were used for the therapeutic studies.

[7] = test system: nude mice inoculated with H460 cells intratracheally; test: Dose finding: lethal toxicity and MTD; type: in vivo; settings: maximum dose causing 0% death
Protocol: as §3

[8] = IT 2.5 mg/kg every other day for 3 injections
[9] = IV 6.25 mg/kg every day for 6 injections

Nc1ncn([C@@H]2O[C@H](CO)[C@@H](O)[C@H]2O)c(=O)n1 [5-azacytidine]
median survival [1, 8]: 98 days
median survival [1, 9]: 73 days
IC50 [2]: 4 to 14 µg/mL (≈ 16.4 to 57.3 µM)
expressions of DAPK and E-cadherin [3]: significantly enhanced
partial remission in lung cancer patients (lung cancer patients): one of 24 lung cancer patients had a partial remission
fraction of aerosol droplets measured between 0.2~3 μm in diameter [4]: about 97 % (weight)
MTD (in vivo): 90 mg/kg
highest white blood cell (WBC) reduction (ICR mice; ICR, mouse, in vivo, iv, 90 mg/kg, 4 day): 69±8.3%
lung toxicity (ICR mice; IT, 90 mg/kg): reversible lung toxicity that peaked on day 7, reduced on day 14
highest white blood cell (WBC) reduction (ICR mice; IT, 90 mg/kg, day 7): 11±1.0%
Toxicity grade of lungs (ICR mice; IT, Day 7): 1-2
hepatic or renal toxicities (ICR mice; mouse, in vivo, 90 mg/kg): no hepatic or renal toxicities
hepatic or renal toxicities (ICR mice; mouse, in vivo, iv, 90 mg/kg): no hepatic or renal toxicities
median survival [5, 8]: > 109 days
median survival [5, 9]: 80 days
MTD ([6]; other: intratracheal injection, IT, qod×3): 37.5 mg/kg
MTD at 6 days ([6]; IV, daily×6): 37.5 mg/kg
MTD (total dose) ([7]; IT, qod×3): 112.5 mg/m^2
MTD (total dose) ([7]; IV, daily×6): 112.5 mg/m^2

Source: US20100055047A1, “Methods for treating bronchial premalignancy and lung cancer” (priority 2008, published 2010)
